# Results from patent US20170204380A1, “GLYCOSYL TRANSFERASES AND THEIR USES” (TECHNISCHE UNIVERSITAT MUNCHEN, priority 2014, published 2017).
# Where two headings read alike, the source gives them in different places.
# Assays:
# VvGT14a [1] = molecular target: T1, VvGT14a (Vitis vinifera, UniProt F6H0R6); settings: for kcat/KM of VvGT14a higher than the value for UGT85B1 from Sorghum bicolor: VvGT14a versus UGT85B1; for Km / kcat: pH 8.5
# VvGT14a [2] = molecular target: T1, VvGT14a; assay: Enantioselectivity by chiral phase SPME-GC-MS after hydrolysis of the formed glucoside; format: biochemical; settings: racemic substrate, prolonged incubation (24 h)
# Experimental: (§1) To determine the enantioselectivity of VvGT14 and VvGT15 the enantiomeric ratio of glucosidically bound citronellol and linalool was determined by enantioselective GC-MS. Following the incubation, residual citronellol and linalool were completely removed by extraction with dichloromethane. Chronellyl β-D-glucoside which remained in the aqueous phase was hydrolyzed by HCl (2 mL, 0.1 M, pH 1) for one hour at 100° C. to release citronellol (Skouroumounis and Sefton, 2000). In case of linalyl β-D-glucoside an enzymatic hydrolysis (AR 2000, citric acid buffer pH 4, 24 h) was applied due to the instability of linalool in acid solutions (Williams et al., 1982). […] After hydrolysis, citronellol and linalool were analyzed by SPME-GC-MS as described above.
# (§2) GC-MS analysis was performed with a Varian GC-450 coupled to a Varian MS-240 ion-trap employing a Phenomenex Zebron ZB-WAXplus column (30 m×0.25 mm×0.25 μm, Aschaffenburg, Germany). Helium flow rate was 1 mL/min. The analysis was carried out in split mode (liquid injections) or splitless mode (SPME measurements) with 220° C. injector temperature. EI (electron impact ionization)-MS spectra were recorded from m/z 40 to 300 (ionization energy 70 eV; trap temperature 170° C.). The oven temperature program was 60° C. (3 min), 10° C./min up to 250° C. (5 min). In case of SPME measurements, liberated aglycones were isolated for 10 min at 60° C. using a fiber coated with a 85 μm film of polyacrylate (SUPELCO, Bellefonte, USA). After extraction the SPME fiber was desorbed for 10 min at 250° C. in the injection port of the GC-MS system and the column oven program was carried out as described above. Enantioselective GC-MS analysis was performed with a Varian GC-450 coupled to a Varian MS-240 ion-trap. The column was a DiAcB (heptakis-(2,3-di-O-acetyl-6-O-tert.-butyldimethylsilyl)-B-cyclodextrin), 26 m×0.32 mm i.d. with a 0.1 μm film. […] GC-MS measurements were recorded in full scan mode. Selected ion monitoring (SIM) mode was used for quantification.
# VvGT15a [3] = molecular target: T2, VvGT15a (Vitis vinifera, UniProt A0ABY9C1E0); assay: as above; format: biochemical; settings: racemic substrate, prolonged incubation (24 h)
# T2 sequence (A0ABY9C1E0 entry or part of it): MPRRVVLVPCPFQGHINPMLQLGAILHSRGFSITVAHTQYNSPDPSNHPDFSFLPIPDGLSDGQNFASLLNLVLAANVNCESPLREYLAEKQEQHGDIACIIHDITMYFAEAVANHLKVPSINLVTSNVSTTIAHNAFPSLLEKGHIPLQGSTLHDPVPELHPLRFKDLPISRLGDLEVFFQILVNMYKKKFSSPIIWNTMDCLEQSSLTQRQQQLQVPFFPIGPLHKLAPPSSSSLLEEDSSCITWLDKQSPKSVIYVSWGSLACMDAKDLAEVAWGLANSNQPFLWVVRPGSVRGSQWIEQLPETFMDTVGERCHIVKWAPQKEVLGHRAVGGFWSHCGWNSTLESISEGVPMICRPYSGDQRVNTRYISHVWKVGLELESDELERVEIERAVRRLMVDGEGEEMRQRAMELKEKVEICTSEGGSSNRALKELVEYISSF
# Experimental: as §1, §2
# VvGT16 [4] = molecular target: T3, VvGT16 (Vitis vinifera, UniProt F6HTJ4)
# T3 sequence (F6HTJ4 entry or part of it): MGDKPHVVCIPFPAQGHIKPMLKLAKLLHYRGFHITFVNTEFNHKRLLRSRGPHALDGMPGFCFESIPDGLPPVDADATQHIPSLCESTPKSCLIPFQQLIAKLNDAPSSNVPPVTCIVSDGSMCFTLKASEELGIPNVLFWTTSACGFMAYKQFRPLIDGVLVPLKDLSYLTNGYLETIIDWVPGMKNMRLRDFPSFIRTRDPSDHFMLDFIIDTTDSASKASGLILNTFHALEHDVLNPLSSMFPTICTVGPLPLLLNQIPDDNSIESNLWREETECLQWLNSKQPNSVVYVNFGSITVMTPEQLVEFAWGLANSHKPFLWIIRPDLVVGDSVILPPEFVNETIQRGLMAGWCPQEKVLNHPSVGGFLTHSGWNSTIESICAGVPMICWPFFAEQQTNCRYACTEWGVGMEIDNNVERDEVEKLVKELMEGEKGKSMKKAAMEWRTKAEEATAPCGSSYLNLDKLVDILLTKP
# Experimental: (§3) The measurements were performed under the following conditions. […] Radioactivity was determined by LSC.
# VvGT15c [5] = molecular target: T4, VvGT15c (Vitis vinifera, UniProt A0ABY9C1E0); assay: Substrate screening, radiochemical analysis with UDP-[14C]glucose; format: biochemical
# T4 sequence (A0ABY9C1E0 entry or part of it): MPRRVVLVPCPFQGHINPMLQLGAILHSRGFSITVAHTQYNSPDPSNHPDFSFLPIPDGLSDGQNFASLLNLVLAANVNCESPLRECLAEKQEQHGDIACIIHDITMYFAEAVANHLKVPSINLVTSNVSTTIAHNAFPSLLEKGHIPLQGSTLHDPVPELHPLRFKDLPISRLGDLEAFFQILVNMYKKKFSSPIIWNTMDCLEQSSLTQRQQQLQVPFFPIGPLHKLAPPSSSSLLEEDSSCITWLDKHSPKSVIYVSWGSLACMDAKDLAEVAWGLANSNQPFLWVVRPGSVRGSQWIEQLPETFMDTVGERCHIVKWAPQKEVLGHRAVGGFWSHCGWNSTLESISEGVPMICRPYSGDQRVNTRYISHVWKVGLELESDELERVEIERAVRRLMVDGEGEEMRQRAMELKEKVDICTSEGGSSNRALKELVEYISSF
# Experimental: (§4) In the initial screening, each reaction mixture (200 μL in total) contained Tris-HCl buffer (100 mM, pH 8, 10 mM 2-mercaptoethanol), 37 pmol UDP-[^14C]glucose (0.01 μCi, Biotrend, Köln, Germany), substrate (50 μL of a 1 mg/mL stock solution) and purified protein (0.5-0.8 μg/μL). […] The organic phase was mixed with 2 mL Pro Flow P+ cocktail (Meridian Biotechnologies Ltd., Epsom, UK) and radioactivity was determined by liquid scintillation counting (LSC, Tri-Carb 2800TR, Perkin Elmer, Waltham Mass., USA). Additionally, negative controls without substrate were performed.
# (§5) The recombinant proteins were expressed with an N-terminal GST-tag, affinity purified and verified by SDS-PAGE and Western Blot using GST-specific antibody.
# VvGT14a [6] = molecular target: T1, VvGT14a; assay: as above; format: biochemical
# Experimental: as §4, §5
# VvGT15a [7] = molecular target: T2, VvGT15a; assay: as above; format: biochemical
# Experimental: as §4, §5
# VvGT15b [8] = molecular target: T5, VvGT15b (Vitis vinifera, UniProt A0ABY9C1E0); assay: as above; format: biochemical
# Experimental: as §4, §5
# VvGT16 [9] = molecular target: T3, VvGT16; assay: as above; format: biochemical
# Experimental: as §4, §5
# VvGT15c [10] = molecular target: T4, VvGT15c; format: biochemical; settings: UDP-glucose fixed 833 μM (for UDP-glucose: geraniol fixed 1.25 mM), Tris-HCl pH 7.5, 30° C.
# Experimental: as §3
# VvGT15a [11] = molecular target: T2, VvGT15a; format: biochemical; settings: UDP-glucose fixed 833 μM (for UDP-glucose: geraniol fixed 1.25 mM), Tris-HCl pH 7.5, 30° C.
# Experimental: as §3
# VvGT15b [12] = molecular target: T5, VvGT15b; format: biochemical; settings: UDP-glucose fixed 833 μM (for UDP-glucose: geraniol fixed 1.25 mM), Tris-HCl pH 7.5, 30° C.
# Experimental: as §3
# CaUGT2 = settings: CaUGT2, natural substrate; cited from earlier work
# UGT71G1 = settings: cited from earlier work
# VvGT1 = molecular target: T6, VvGT1 (Vitis vinifera, UniProt P51094); settings: VvGT1, natural substrate; cited from earlier work
# T6 sequence (P51094 1-456): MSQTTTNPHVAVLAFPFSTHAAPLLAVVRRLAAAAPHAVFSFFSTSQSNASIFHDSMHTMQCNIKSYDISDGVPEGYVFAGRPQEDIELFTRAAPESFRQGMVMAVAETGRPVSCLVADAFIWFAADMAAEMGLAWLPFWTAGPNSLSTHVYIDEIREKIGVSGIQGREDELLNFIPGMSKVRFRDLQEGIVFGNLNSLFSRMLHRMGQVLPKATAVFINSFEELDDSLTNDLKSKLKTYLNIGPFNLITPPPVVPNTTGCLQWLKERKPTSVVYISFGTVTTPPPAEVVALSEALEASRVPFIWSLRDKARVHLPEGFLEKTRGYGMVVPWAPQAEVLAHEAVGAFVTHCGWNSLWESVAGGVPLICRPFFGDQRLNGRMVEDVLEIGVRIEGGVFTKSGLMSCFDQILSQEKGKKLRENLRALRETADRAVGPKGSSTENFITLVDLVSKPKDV
# VvGT6 = settings: cited from earlier work
# VvGT5 = settings: cited from earlier work
# [13] = UDP-glucose fixed 512.5 μM (for UDP-glucose: geraniol fixed 1.25 mM), Tris-HCl pH 8.5, 30° C.
# T1 sequence (F6H0R6 entry or part of it): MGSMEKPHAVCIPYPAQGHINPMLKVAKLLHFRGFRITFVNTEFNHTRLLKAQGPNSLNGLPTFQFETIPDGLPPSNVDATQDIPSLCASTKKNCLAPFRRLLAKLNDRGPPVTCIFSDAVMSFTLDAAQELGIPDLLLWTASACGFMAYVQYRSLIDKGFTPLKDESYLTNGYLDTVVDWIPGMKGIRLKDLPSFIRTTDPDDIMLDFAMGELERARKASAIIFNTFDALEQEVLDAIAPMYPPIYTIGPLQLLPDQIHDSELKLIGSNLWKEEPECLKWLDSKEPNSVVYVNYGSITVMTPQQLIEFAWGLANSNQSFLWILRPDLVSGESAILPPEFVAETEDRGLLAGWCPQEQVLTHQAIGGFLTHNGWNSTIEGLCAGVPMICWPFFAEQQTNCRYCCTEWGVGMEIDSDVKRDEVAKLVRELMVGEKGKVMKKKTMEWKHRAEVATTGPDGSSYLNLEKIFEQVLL
SMILES,kcat/KM of VvGT14a higher than the value for UGT85B1 from Sorghum bicolor (VvGT14a [1]) [fold],kcat (VvGT16 [4]; [13]) [s⁻¹],conversion as substrate (in words) (VvGT15c [5]),conversion as substrate (in words) (VvGT14a [6]),conversion as substrate (in words) (VvGT15a [7]),conversion as substrate (in words) (VvGT15b [8]),Km (VvGT14a [1]) [µM],kcat (VvGT14a [1]) [s⁻¹],"enantiomeric preference, aglycone liberated from the formed glucoside (VvGT14a [2])",conversion as substrate (in words) (VvGT16 [9]),also measured
"CC(C)=CCCC(C)CCO (racemic) [citronellol (rac), (R,S)-3,7-dimethyl-6-octen-1-ol]",4,0.008,glucosylated primarily,preferred,glucosylated primarily,glucosylated primarily,,,no enantio-discrimination,transformed,"enantiomeric preference, aglycone liberated from the formed glucoside (VvGT15a [3]): no enantio-discrimination; Km (VvGT16 [4]; [13]): 108 ± 2.5 µM; transformation of R- and S-citronellol (in words) (VvGT16 [4]; radiochemical assays): same efficiency"
"C=CC(C)(O)CCC=C(C)C (racemic) [linalool (rac), (R,S)-3,7-dimethyl-1,6-octadien-3-ol]",,,,catalytic activity,,,,,slight enrichment of the R-enantiomer,,
COc1cc(/C=C/C(=O)CC(=O)/C=C/c2ccc(O)c(OC)c2)ccc1O [curcumin],,,,,,,,,,,Km (CaUGT2): 43.9 µM; kcat (CaUGT2): 0.0165 s⁻¹
O=c1c(O)c(-c2ccc(O)c(O)c2)oc2cc(O)cc(O)c12 [quercetin],,,,,,,,,,,Km (UGT71G1): 57 µM; kcat (UGT71G1): 0.0175 s⁻¹; Km (VvGT1): 31 µM; kcat (VvGT1): 0.075 s⁻¹; Km (VvGT6): 9.24 µM; kcat (VvGT6): 0.76 s⁻¹; Km (VvGT5): 5.6 µM; kcat (VvGT5): 7.16 s⁻¹

# Second part, led by results:
kcat/KM of VvGT14a higher than the value for UGT85B1 from Sorghum bicolor (VvGT14a [1]) [fold],kcat (VvGT16 [4]; [13]) [s⁻¹],conversion as substrate (in words) (VvGT15c [5]),conversion as substrate (in words) (VvGT14a [6]),conversion as substrate (in words) (VvGT15a [7]),conversion as substrate (in words) (VvGT15b [8]),Km (VvGT14a [1]) [µM],kcat (VvGT14a [1]) [s⁻¹],SMILES,"enantiomeric preference, aglycone liberated from the formed glucoside (VvGT14a [2])",conversion as substrate (in words) (VvGT16 [9]),also measured
4,0.015,glucosylated primarily,preferred,glucosylated primarily,glucosylated primarily,9,0.02,"CC(C)=CCC/C(C)=C/CO [Geraniol, (E)-3,7-dimethyl-2,6-octadien-1-ol]",,,Km (VvGT15c [10]): 43 µM; kcat (VvGT15c [10]): 0.17 s⁻¹; Km (VvGT15a [11]): 63 µM; kcat (VvGT15a [11]): 0.12 s⁻¹; Km (VvGT15b [12]): 81 µM; kcat (VvGT15b [12]): 0.10 s⁻¹; kcat (VvGT15b [12]; listed as geraniol): 0.1 s⁻¹
40,0.009,glucosylated primarily,,glucosylated primarily,glucosylated primarily,10,0.02,"CC(C)=CCC/C(C)=C\CO [Nerol, (Z)-3,7-dimethyl-2,6-octadien-1-ol]",,transformed,
